Reference: the supplement of paper PMC3068080

Columns and labels:
TGFBR1 mRNA [1] = experiment: remaining TGFBR1 mRNA relative to control siRNA (off-target knock-down) (fraction of control); quantification method: qPCR (R1), branched DNA (R2); higher = less knock-down
Procedure: (§1)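 Screen-hit siRNA duplexes (19-mer plus 3' dTdT overhang) were transiently transfected into HaCaT cells in 12-well plates. After 48 h, TGFBR1 and TGFBR2 mRNA were quantified by branched DNA assay (QuantiGene, normalised to HPRT1) or by SYBR qPCR (normalised to HPRT1/SMAD4). Values are the remaining mRNA relative to control-siRNA-transfected cells; 1-2 biological replicates.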

TGFBR2 mRNA [2] = experiment: remaining TGFBR2 mRNA relative to control siRNA (off-target knock-down) (fraction of control); quantification method: qPCR (R1), branched DNA (R2); higher = less knock-down
Procedure: as §1

TGFBR1 mRNA [3] = experiment: remaining TGFBR1 mRNA relative to control siRNA (off-target knock-down) (fraction of control); quantification method: qPCR; higher = less knock-down
Procedure: as §1

TGFBR2 mRNA [4] = experiment: remaining TGFBR2 mRNA relative to control siRNA (off-target knock-down) (fraction of control); quantification method: qPCR; higher = less knock-down
Procedure: as §1

Row | Sequence | remaining TGFBR1 mRNA (TGFBR1 mRNA [1]) | remaining TGFBR2 mRNA (TGFBR2 mRNA [2]) | remaining TGFBR1 mRNA (TGFBR1 mRNA [3]) | remaining TGFBR2 mRNA (TGFBR2 mRNA [4])
1 | AUAGACCAUCCCCCUUCUUTT | 0.46 | 0.95 |  | 
2 | UCUGUCAUAGGAUCCAAAATT |  |  | 0.74 | 0.75
